Measurements: ChEMBL document CHEMBL1129183, “Correlation of oxidation potential and toxicity in thiobenzamides” (Bioorg Med Chem Lett, 1996)

Test: Lethal dose to rats was determined
Type: toxicity
Conditions: rat, in vivo

Compound | Dose
Cc1ccc(C(N)=S)cc1 | 2 mM/kg
COc1ccc(C(N)=S)cc1 | 2 mM/kg
